According to ChEMBL document CHEMBL1132079, “Combined NK1 and NK2 tachykinin receptor antagonists: synthesis and structure-activity relationships of novel oxazolidine analogues” (Bioorg Med Chem Lett, 1999):

Assays:
[1] = target: Substance-P receptor (Cavia porcellus, UniProt P30547); experiment: Inhibitory activity against Neurokinin 1 (NK1) receptor from guinea pig lung
[2] = target: T1, Substance-K receptor (Cavia porcellus, UniProt Q64077); experiment: Inhibitory activity against Neurokinin 2 (NK2) receptor from guinea pig ileum; type: tissue-based
T1 sequence (Q64077 whole entry): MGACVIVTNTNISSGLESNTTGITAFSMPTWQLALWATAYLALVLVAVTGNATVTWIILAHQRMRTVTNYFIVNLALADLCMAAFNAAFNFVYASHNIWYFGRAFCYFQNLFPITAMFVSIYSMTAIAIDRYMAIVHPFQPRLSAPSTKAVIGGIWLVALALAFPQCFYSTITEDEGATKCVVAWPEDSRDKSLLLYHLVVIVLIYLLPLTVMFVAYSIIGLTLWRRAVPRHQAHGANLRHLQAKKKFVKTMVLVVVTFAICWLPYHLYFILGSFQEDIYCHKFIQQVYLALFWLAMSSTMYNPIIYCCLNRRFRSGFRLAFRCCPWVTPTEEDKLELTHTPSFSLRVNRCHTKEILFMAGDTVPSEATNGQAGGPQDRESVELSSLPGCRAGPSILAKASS

[3] = target: T2, Substance-K receptor (Cavia porcellus) (UniProt Q64077); experiment: Antagonist activity against Neurokinin 2 (NK2) receptor from guinea pig ileum at a concentration of 1 ug/mL; type: functional, tissue-based
T2 sequence (whole entry): T1 sequence (Q64077 whole entry)

[4] = tested on: Cavia porcellus; experiment: In vivo inhibitory activity against [Nle10] ]-NKA[4-10]-induced bronchoconstriction in guinea pig after iv administration; type: functional; details: read-out: ID50 (the source's name)
[5] = tested on: Cavia porcellus; experiment: In vivo inhibitory activity against SP-induced vascular hyperpermeability in guinea pig after iv administration; type: functional; details: read-out: ID50 (the source's name)

Substance-P receptor, sequence (P30547 whole entry): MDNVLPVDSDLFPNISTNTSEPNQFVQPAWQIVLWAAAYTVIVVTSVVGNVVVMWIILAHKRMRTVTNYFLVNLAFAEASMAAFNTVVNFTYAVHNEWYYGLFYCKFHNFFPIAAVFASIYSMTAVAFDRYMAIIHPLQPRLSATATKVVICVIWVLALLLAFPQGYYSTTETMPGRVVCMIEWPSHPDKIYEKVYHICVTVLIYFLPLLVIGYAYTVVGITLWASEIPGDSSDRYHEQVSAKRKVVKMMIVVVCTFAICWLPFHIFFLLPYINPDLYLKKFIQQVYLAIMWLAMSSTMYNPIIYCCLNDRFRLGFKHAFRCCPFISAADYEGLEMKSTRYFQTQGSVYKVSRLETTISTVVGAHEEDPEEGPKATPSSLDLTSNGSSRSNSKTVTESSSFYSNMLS

Structure (SMILES)	IC50 [1] [nM]	IC50 [2] [nM]	inhibition [3] [%]	ED50 [4] [mg/kg]	ED50 [5] [mg/kg]
COc1cc(C(=O)N2CO[C@](CCN3CCC4(CC3)c3ccccc3CS4(=O)=O)(c3ccc(Cl)c(Cl)c3)C2)cc(OC)c1OC	34	28.1			
COc1cc(C(=O)N2CO[C@](CCN3CCC(C(=O)N4CCCC4)(c4ccccc4)CC3)(c3ccc(Cl)c(Cl)c3)C2)cc(OC)c1OC	11.2	91.9			
COc1ccc(C(=O)N2CO[C@](CCN3CCC(C(N)=O)(c4ccccc4)CC3)(c3ccc(Cl)c(Cl)c3)C2)cc1	112	292			
COc1cc(C(=O)N2CO[C@](CCN3CCC4(CC3)NC(=O)Cc3ccccc34)(c3ccc(Cl)c(Cl)c3)C2)cc(OC)c1OC	18.3	4.58			
COc1cc(C(=O)N2CO[C@](CCN3CCC4(CC3)C(=O)NCN4c3ccccc3)(c3ccc(Cl)c(Cl)c3)C2)cc(OC)c1OC	7.47				
COc1cc(C(=O)N2CO[C@](CCN3CCC4(CC3)c3ccccc3C[S+]4[O-])(c3ccc(F)c(F)c3)C2)cc(OC)c1OC (some centres not stated)	25.5	30.3			
COc1cc(C(=O)N2CO[C@](CCN3CCC(C(=O)NCc4ccccc4)CC3)(c3ccc(Cl)c(Cl)c3)C2)cc(OC)c1OC	92.9		64		
COc1cc(C(=O)N2CO[C@](CCN3CCC4(CC3)NC(=O)Cc3ccccc34)(c3ccc(F)cc3)C2)cc(OC)c1OC	48	10.3			
COc1cc(C(=O)N2CO[C@](CCN3CCC(C(N)=O)(c4ccccc4)CC3)(c3ccc(Cl)cc3)C2)cc(OC)c1OC	44.4	329			
COc1cc(C(=O)N2CO[C@](CCN3CCC(C(=O)N(C)C)(c4ccccc4)CC3)(c3ccc(Cl)c(Cl)c3)C2)cc(OC)c1OC	25.3	8.2			
COc1cc(C(=O)N2CO[C@](CCCN3CCC(C(N)=O)(c4ccccc4)CC3)(c3ccc(Cl)c(Cl)c3)C2)cc(OC)c1OC	35	> 1520			
COc1cc(C(=O)N2CO[C@](CCN3CCC(C(=O)N4CCOCC4)(c4ccccc4)CC3)(c3ccc(Cl)c(Cl)c3)C2)cc(OC)c1OC	44.9	73			
COc1cc(C(=O)N2CO[C@](CCN3CCC(C(N)=O)(c4ccccc4)CC3)(c3ccc(Cl)c(Cl)c3)C2)cc(OC)c1OC	9.65	142			
COc1cc(C(=O)N2CO[C@](CCN3CCC4(CC3)NC(=O)Cc3ccccc34)(c3ccc(F)c(F)c3)C2)cc(OC)c1OC	45	10.9			
COc1cc(C(=O)N2CO[C@](CCN3CCC(C(N)=O)(c4ccccc4)CC3)(c3ccc(F)cc3)C2)cc(OC)c1OC	45.6	744			
NC(=O)C1(c2ccccc2)CCN(CC[C@@]2(c3ccc(Cl)c(Cl)c3)CN(C(=O)c3cc(C(F)(F)F)cc(C(F)(F)F)c3)CO2)CC1	145	160			
COc1cc(C(=O)N2CO[C@](CCN3CCC(C(=O)N(C)C)(c4ccccc4)CC3)(c3ccc(F)c(F)c3)C2)cc(OC)c1OC	42.3	20.4			
COc1cc(C(=O)N2CO[C@](CCN3CCC(C(=O)N(C)C)(c4ccccc4)CC3)(c3ccc(F)cc3)C2)cc(OC)c1OC	27.4	15			
COc1cc(C(=O)N2CO[C@](CCN3CCC4(CC3)NC(=O)Cc3ccccc34)(c3ccc(Cl)cc3)C2)cc(OC)c1OC	82.2	5.16			
COc1cc(C(=O)N2CO[C@](CCN3CCC4(CC3)C[S+]([O-])c3ccccc34)(c3ccc(Cl)c(Cl)c3)C2)cc(OC)c1OC (some centres not stated)	8.94	11.1			
COc1cc(C(=O)N2CO[C@](CCN3CCC(O)(c4ccncc4)CC3)(c3ccc(Cl)c(Cl)c3)C2)cc(OC)c1OC	3.08	144			
COc1cc(C(=O)N2CO[C@](CCN3CCC4(CC3)c3ccccc3C[S+]4[O-])(c3ccc(Cl)cc3)C2)cc(OC)c1OC (some centres not stated)	19.2	11			
COc1cc(C(=O)N2CO[C@](CCN3CCC4(CC3)C(=O)N(C)c3ccccc34)(c3ccc(Cl)c(Cl)c3)C2)cc(OC)c1OC	14.1	51.9			
COc1cc(C(=O)N2CO[C@](CCN3CCC4(CC3)c3ccccc3C[S+]4[O-])(c3ccc(Cl)c(Cl)c3)C2)cc(OC)c1OC (some centres not stated)	10.2	11.4		0.074	0.025
COc1cc(C(=O)N2CO[C@](CCN3CCC4(CC3)c3ccccc3C[S+]4[O-])(c3ccc(F)cc3)C2)cc(OC)c1OC (some centres not stated)	24.6	34.5			
COc1cc(C(=O)N2CO[C@](CCN3CCC(C(N)=O)(c4ccccc4)CC3)(c3ccc(F)c(F)c3)C2)cc(OC)c1OC	16.4	328			
COc1cc(C(=O)N2CO[C@](CCN3CCN(c4ccc(C(C)=O)cc4)CC3)(c3ccc(Cl)c(Cl)c3)C2)cc(OC)c1OC	28	115			
COc1cc(C(=O)N2CO[C@](CCN3CCC(C(=O)N(C)C)(c4ccccc4)CC3)(c3ccc(Cl)cc3)C2)cc(OC)c1OC	78.6	7.39			
